Source: ChEMBL document CHEMBL5247620, “Lupane derivatives containing various aryl substituents in the position 3 have selective cytostatic effect in leukemic cancer cells including resistant phenotypes” (Eur J Med Chem, 2022)

Experiments:
[1] = Cytotoxicity against human p53HCT116 cells assessed as inhibition of cell growth incubated for 72 hrs by MTS assay; type: functional, cell-based; settings: p53HCT116, 72 h
CEM-DNR = assay: Cytotoxicity against human CEM-DNR cells assessed as inhibition of cell growth incubated for 72 hrs by MTS assay; type: functional, cell-based
HCT-116 = assay: Cytotoxicity against human HCT-116 cells assessed as inhibition of cell growth incubated for 72 hrs by MTS assay; type: functional, cell-based; settings: HCT-116, 72 h
K562 = assay: Cytotoxicity against human K562 cells assessed as inhibition of cell growth incubated for 72 hrs by MTS assay; type: functional, cell-based; settings: K562, 72 h
U2OS = assay: Cytotoxicity against human U2OS cells assessed as inhibition of cell growth incubated for 72 hrs by MTS assay; type: functional, cell-based
[2] = Cytotoxicity against human BJ cells assessed as inhibition of cell growth incubated for 72 hrs by MTS assay; type: toxicity, cell-based
[3] = Cytotoxicity against human MRC5 cells assessed as inhibition of cell growth incubated for 72 hrs by MTS assay; type: toxicity, cell-based
[4] = Cytotoxicity against human K562-Tax cells assessed as inhibition of cell growth incubated for 72 hrs by MTS assay; type: functional, cell-based
A549 = assay: Cytotoxicity against human A549 cells assessed as inhibition of cell growth incubated for 72 hrs by MTS assay; type: functional, cell-based; settings: A549, 72 h
CCRF-CEM = assay: Cytotoxicity against human CCRF-CEM cells assessed as inhibition of cell growth incubated for 72 hrs by MTS assay; type: functional, cell-based

C=C(C)[C@@H]1CC[C@]2(C(=O)O)CC[C@]3(C)[C@H](CC[C@@H]4[C@@]5(C)CC=C(c6ccccc6OC)C(C)(C)[C@@H]5CC[C@]43C)[C@@H]12
IC50 [1]: 23 µM | IC50 (CEM-DNR): 24 µM | IC50 (HCT-116): 24 µM | IC50 (K562): 30 µM | IC50 (U2OS): 28 µM | IC50 at 72 h [2]: 48 µM | IC50 at 72 h [3]: 27 µM | IC50 [4]: 23 µM | IC50 (A549): 42 µM | IC50 (CCRF-CEM): 16 µM

C=C(C)[C@@H]1CC[C@]2(C(=O)O)CC[C@]3(C)[C@H](CC[C@@H]4[C@@]5(C)CC=C(c6cccc([N+](=O)[O-])c6)C(C)(C)[C@@H]5CC[C@]43C)[C@@H]12
IC50 [1]: 47 µM | IC50 (CEM-DNR): 43 µM | IC50 (HCT-116): 48 µM | IC50 (K562): 45 µM | IC50 (U2OS): 46 µM | IC50 at 72 h [2]: 50 µM | IC50 at 72 h [3]: 48 µM | IC50 [4]: 24 µM | IC50 (A549): 34 µM | IC50 (CCRF-CEM): 18 µM

C=C(C)[C@@H]1CC[C@]2(C(=O)O)CC[C@]3(C)[C@H](CC[C@@H]4[C@@]5(C)CC=C(c6ccc(N)cc6)C(C)(C)[C@@H]5CC[C@]43C)[C@@H]12
IC50 [1]: 24 µM | IC50 (CEM-DNR): 11 µM | IC50 (HCT-116): 25 µM | IC50 (K562): 17 µM | IC50 (U2OS): 22 µM | IC50 at 72 h [2]: > 50 µM | IC50 at 72 h [3]: > 50 µM | IC50 [4]: 19 µM | IC50 (A549): 26 µM | IC50 (CCRF-CEM): 3.8 µM

C=C(C)[C@@H]1CC[C@]2(C(=O)O)CC[C@]3(C)[C@H](CC[C@@H]4[C@@]5(C)CC=C(c6ccc([N+](=O)[O-])cc6)C(C)(C)[C@@H]5CC[C@]43C)[C@@H]12
IC50 [1]: > 50 µM | IC50 (CEM-DNR): > 50 µM | IC50 (HCT-116): > 50 µM | IC50 (K562): > 50 µM | IC50 (U2OS): 42 µM | IC50 at 72 h [2]: > 50 µM | IC50 at 72 h [3]: > 50 µM | IC50 [4]: > 50 µM | IC50 (A549): > 50 µM | IC50 (CCRF-CEM): 26 µM

C=C(C)[C@@H]1CC[C@]2(C(=O)O)CC[C@]3(C)[C@H](CC[C@@H]4[C@@]5(C)CC=C(c6cccc(C(F)(F)F)c6)C(C)(C)[C@@H]5CC[C@]43C)[C@@H]12
IC50 [1]: > 50 µM | IC50 (CEM-DNR): 37 µM | IC50 (HCT-116): 37 µM | IC50 (K562): > 50 µM | IC50 (U2OS): 45 µM | IC50 at 72 h [2]: > 50 µM | IC50 at 72 h [3]: 50 µM | IC50 [4]: 30 µM | IC50 (A549): 46 µM | IC50 (CCRF-CEM): 19 µM

C=C(C)[C@@H]1CC[C@]2(C(=O)OCc3ccccc3)CC[C@]3(C)[C@H](CC[C@@H]4[C@@]5(C)CC=C(OS(=O)(=O)C(F)(F)F)C(C)(C)[C@@H]5CC[C@]43C)[C@@H]12
IC50 [1]: 29 µM | IC50 (CEM-DNR): 22 µM | IC50 (HCT-116): 22 µM | IC50 (K562): 23 µM | IC50 (U2OS): 29 µM | IC50 at 72 h [2]: 40 µM | IC50 at 72 h [3]: 27 µM | IC50 [4]: 18 µM | IC50 (A549): 20 µM | IC50 (CCRF-CEM): 14 µM

C=C(C)[C@@H]1CC[C@]2(C(=O)O)CC[C@]3(C)[C@H](CC[C@@H]4[C@@]5(C)CC=C(c6ccccc6C(=O)OC)C(C)(C)[C@@H]5CC[C@]43C)[C@@H]12
IC50 [1]: 23 µM | IC50 (CEM-DNR): 27 µM | IC50 (HCT-116): 27 µM | IC50 (K562): 26 µM | IC50 (U2OS): 25 µM | IC50 at 72 h [2]: 38 µM | IC50 at 72 h [3]: 22 µM | IC50 [4]: 29 µM | IC50 (A549): 26 µM | IC50 (CCRF-CEM): 15 µM

C=C(C)[C@@H]1CC[C@]2(C(=O)O)CC[C@]3(C)[C@H](CC[C@@H]4[C@@]5(C)CC=C(c6ccccc6N)C(C)(C)[C@@H]5CC[C@]43C)[C@@H]12
IC50 [1]: 18 µM | IC50 (CEM-DNR): 46 µM | IC50 (HCT-116): 46 µM | IC50 (K562): 46 µM | IC50 (U2OS): 27 µM | IC50 at 72 h [2]: > 50 µM | IC50 at 72 h [3]: > 50 µM | IC50 [4]: 44 µM | IC50 (A549): 24 µM | IC50 (CCRF-CEM): 11 µM

C=C(C)[C@@H]1CC[C@]2(C(=O)O)CC[C@]3(C)[C@H](CC[C@@H]4[C@@]5(C)CC=C(c6cccc(C(=O)OC)c6)C(C)(C)[C@@H]5CC[C@]43C)[C@@H]12
IC50 [1]: 41 µM | IC50 (CEM-DNR): > 50 µM | IC50 (HCT-116): 50 µM | IC50 (K562): > 50 µM | IC50 (U2OS): 8.8 µM | IC50 at 72 h [2]: > 50 µM | IC50 at 72 h [3]: 44 µM | IC50 [4]: 43 µM | IC50 (A549): > 50 µM | IC50 (CCRF-CEM): 17 µM

C=C(C)[C@@H]1CC[C@]2(C(=O)O)CC[C@]3(C)[C@H](CC[C@@H]4[C@@]5(C)CC=C(c6ccc(OC)cc6)C(C)(C)[C@@H]5CC[C@]43C)[C@@H]12
IC50 [1]: 50 µM | IC50 (CEM-DNR): 50 µM | IC50 (HCT-116): 50 µM | IC50 (K562): 50 µM | IC50 (U2OS): 42 µM | IC50 at 72 h [2]: 50 µM | IC50 at 72 h [3]: 46 µM | IC50 [4]: 50 µM | IC50 (A549): 43 µM | IC50 (CCRF-CEM): 23 µM

C=C(C)[C@@H]1CC[C@]2(C(=O)O)CC[C@]3(C)[C@H](CC[C@@H]4[C@@]5(C)CC=C(c6ccccc6O)C(C)(C)[C@@H]5CC[C@]43C)[C@@H]12
IC50 [1]: > 50 µM | IC50 (CEM-DNR): 30 µM | IC50 (HCT-116): 30 µM | IC50 (K562): > 50 µM | IC50 (U2OS): 26 µM | IC50 at 72 h [2]: > 50 µM | IC50 at 72 h [3]: 31 µM | IC50 [4]: 15 µM | IC50 (A549): 41 µM | IC50 (CCRF-CEM): 10 µM

C=C(C)[C@@H]1CC[C@]2(C(=O)O)CC[C@]3(C)[C@H](CC[C@@H]4[C@@]5(C)CC=C(c6ccc(C(=O)OC)cc6)C(C)(C)[C@@H]5CC[C@]43C)[C@@H]12
IC50 [1]: 47 µM | IC50 (CEM-DNR): 47 µM | IC50 (HCT-116): 47 µM | IC50 (K562): 48 µM | IC50 (U2OS): 46 µM | IC50 at 72 h [2]: 47 µM | IC50 at 72 h [3]: 46 µM | IC50 [4]: 7.2 µM | IC50 (A549): 47 µM | IC50 (CCRF-CEM): 46 µM

C=C(C)[C@@H]1CC[C@]2(C(=O)O)CC[C@]3(C)[C@H](CC[C@@H]4[C@@]5(C)CC=C(c6cccc(OC)c6)C(C)(C)[C@@H]5CC[C@]43C)[C@@H]12
IC50 [1]: > 50 µM | IC50 (CEM-DNR): 31 µM | IC50 (HCT-116): 31 µM | IC50 (K562): > 50 µM | IC50 (U2OS): 35 µM | IC50 at 72 h [2]: > 50 µM | IC50 at 72 h [3]: > 50 µM | IC50 [4]: 29 µM | IC50 (A549): 45 µM | IC50 (CCRF-CEM): 15 µM
